These results are taken from publication PMC11721313, “Sustained inhibition of CSF1R signaling augments antitumor immunity through inhibiting tumor-associated macrophages” (JCI Insight, 2025).

Common to all, as to type: cell-based
In test [1] the target is T1, CSF1R (colony-stimulating factor 1 receptor) (Mus musculus, UniProt P09581).
T1 sequence (P09581 20-977): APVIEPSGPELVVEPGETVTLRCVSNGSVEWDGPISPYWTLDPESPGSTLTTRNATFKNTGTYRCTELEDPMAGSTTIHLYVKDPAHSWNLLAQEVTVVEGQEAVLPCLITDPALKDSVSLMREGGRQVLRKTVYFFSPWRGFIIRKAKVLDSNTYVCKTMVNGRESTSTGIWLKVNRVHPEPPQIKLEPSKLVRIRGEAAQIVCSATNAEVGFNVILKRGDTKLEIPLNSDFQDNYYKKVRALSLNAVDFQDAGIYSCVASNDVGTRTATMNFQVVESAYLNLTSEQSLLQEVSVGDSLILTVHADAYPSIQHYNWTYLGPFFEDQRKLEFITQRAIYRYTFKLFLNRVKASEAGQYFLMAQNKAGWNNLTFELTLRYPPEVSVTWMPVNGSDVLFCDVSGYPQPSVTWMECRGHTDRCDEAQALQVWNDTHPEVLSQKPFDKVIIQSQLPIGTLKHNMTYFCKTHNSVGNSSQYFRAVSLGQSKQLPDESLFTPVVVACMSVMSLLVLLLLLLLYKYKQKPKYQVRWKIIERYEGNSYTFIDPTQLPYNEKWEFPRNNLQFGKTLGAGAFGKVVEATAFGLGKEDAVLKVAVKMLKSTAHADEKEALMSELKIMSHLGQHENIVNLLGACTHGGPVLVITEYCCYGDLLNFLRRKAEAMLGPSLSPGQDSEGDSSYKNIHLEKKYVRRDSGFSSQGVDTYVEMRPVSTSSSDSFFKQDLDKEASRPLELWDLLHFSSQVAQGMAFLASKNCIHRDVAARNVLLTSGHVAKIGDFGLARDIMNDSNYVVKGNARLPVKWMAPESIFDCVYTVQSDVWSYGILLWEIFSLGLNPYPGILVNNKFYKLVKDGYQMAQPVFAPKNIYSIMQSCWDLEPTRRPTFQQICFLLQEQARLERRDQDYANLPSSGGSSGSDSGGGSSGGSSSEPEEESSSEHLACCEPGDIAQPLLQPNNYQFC
As to the kind of experiment: Western blot of CSF1R signaling in RAW264 cells with and without drug removal (reference CSF1R inhibitor). Background: A western blot detects proteins with antibodies after separation by electrophoresis.

Test [2] addresses CSF1R (colony-stimulating factor 1 receptor) (Homo sapiens, UniProt P07333). The test can be described thus: Western blot of M-CSF-induced CSF1R phosphorylation in human monocyte-derived macrophages.
In test [3] the target is T1, CSF1R (colony-stimulating factor 1 receptor). As to the kind of experiment: Western blot of M-CSF-induced CSF1R phosphorylation in murine BMDMs and RAW264 cells; inhibition persists after drug washout.

SMILES strings stand for the structures.

CSF1R (colony-stimulating factor 1 receptor) (Homo sapiens, UniProt P07333), sequence (P07333 20-972): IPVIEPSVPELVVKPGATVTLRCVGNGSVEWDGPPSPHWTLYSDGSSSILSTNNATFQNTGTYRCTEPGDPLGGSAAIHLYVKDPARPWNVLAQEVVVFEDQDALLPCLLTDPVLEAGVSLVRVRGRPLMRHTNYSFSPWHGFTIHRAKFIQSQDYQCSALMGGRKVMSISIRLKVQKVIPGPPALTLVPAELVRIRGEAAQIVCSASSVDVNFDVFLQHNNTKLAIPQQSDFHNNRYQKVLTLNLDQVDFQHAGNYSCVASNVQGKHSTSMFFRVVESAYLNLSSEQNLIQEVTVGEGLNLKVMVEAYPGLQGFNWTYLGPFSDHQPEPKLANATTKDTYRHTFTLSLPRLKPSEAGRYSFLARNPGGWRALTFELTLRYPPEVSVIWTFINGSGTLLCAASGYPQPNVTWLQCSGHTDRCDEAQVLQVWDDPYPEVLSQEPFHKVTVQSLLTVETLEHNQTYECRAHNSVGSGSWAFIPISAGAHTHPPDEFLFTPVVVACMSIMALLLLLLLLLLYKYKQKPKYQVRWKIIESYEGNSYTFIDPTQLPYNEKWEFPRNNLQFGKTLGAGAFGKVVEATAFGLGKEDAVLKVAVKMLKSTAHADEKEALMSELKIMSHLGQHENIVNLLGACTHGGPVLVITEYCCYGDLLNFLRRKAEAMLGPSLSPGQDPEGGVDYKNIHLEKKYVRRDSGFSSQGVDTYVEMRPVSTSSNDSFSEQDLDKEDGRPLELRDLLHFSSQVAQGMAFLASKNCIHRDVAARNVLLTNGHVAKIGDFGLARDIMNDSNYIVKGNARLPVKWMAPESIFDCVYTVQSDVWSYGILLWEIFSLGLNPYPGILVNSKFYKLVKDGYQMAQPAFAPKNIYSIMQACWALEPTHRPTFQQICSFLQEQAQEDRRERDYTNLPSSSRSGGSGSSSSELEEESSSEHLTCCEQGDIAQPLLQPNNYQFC

As to `CNC(=O)c1cc(Oc2ccc3nc(N[C@@H]4CCCC[C@H]4O)sc3c2)ccn1` [BLZ945], the “Western blot of CSF1R signaling in RAW264 cells with and without drug removal (r)” value in test [1] is “the inhibitory activity of BLZ945, another CSF1R inhibitor with an IC50 comparable to that of FF-10101, decreased upon drug removal”.
Consider `CCCNc1nc(Nc2ccc(C#N)cc2)ncc1C#CCCCNC(=O)[C@H](C)N(C)C(=O)/C=C/CN(C)C` [FF-10101], for which the “Western blot of M-CSF-induced CSF1R phosphorylation in human monocyte-derived ma” value in test [2] is reported as “human monocyte-derived macrophages upon reexposure to M-CSF was markedly inhibited by FF-10101 in a dose-dependent manner”. The “Western blot of M-CSF-induced CSF1R phosphorylation in murine BMDMs and RAW264 c” value in test [3] is on record as “upon reexposure to M-CSF was markedly inhibited by FF-10101 in a dose-dependent manner”.
